Source: PubChem BioAssay AID328 (DTP/NCI, 2004)
“And” between values parts separate entries of the source, which are not always exact repeats. Equal entries are not always repeated. Toxic doses and inconclusive results are not listed. Residues, ends and D or L forms follow the SMILES beside them. *: point of attachment. Trt = c1ccc(C(c2ccccc2)(c2ccccc2)*)cc1; Bn = c1ccc(C*)cc1

Tested on: BDF1 mice, P388 leukemia ip, median survival T/C
Experiment: NCI In Vivo Anticancer Drug Screen. Data for tumor model P388 Leukemia (intraperitoneal) in B6D2F1 (BDF1) mice
Details: endpoint: median survival time, higher = longer survival
In short: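 Vehicle-dosed animals serve as the reference; survival of compound-dosed, tumour-implanted mice is divided by it.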

[1] = dose: 50.0 mg/kg/injection, schedule: Q01DX009 (ip), vehicle: saline with Tween-80
[2] = dose: 100.0 mg/kg/injection, schedule: Q01DX009 (ip), vehicle: Klucel (hydroxypropylcellulose) (HPC)
[3] = dose: 100.0 mg/kg/injection, schedule: Q01DX009 (ip), vehicle: saline with Tween-80
[4] = dose: 200.0 mg/kg/injection, schedule: Q01DX009 (ip), vehicle: Klucel (hydroxypropylcellulose) (HPC)
[5] = dose: 100.0 mg/kg/injection, schedule: Q04DX003 (ip), vehicle: saline with Tween-80
[6] = dose: 200.0 mg/kg/injection, schedule: Q04DX003 (ip), vehicle: saline with Tween-80
[7] = dose: 400.0 mg/kg/injection, schedule: Q04DX003 (ip), vehicle: saline with Tween-80
[8] = dose: 100.0 mg/kg/injection, schedule: Q04DX003 (ip), vehicle: saline sonified
[9] = dose: 200.0 mg/kg/injection, schedule: Q04DX003 (ip), vehicle: saline sonified
[10] = dose: 400.0 mg/kg/injection, schedule: Q04DX003 (ip), vehicle: saline sonified
[11] = dose: 100.0 mg/kg/injection, schedule: Q04DX003 (ip), vehicle: Klucel (hydroxypropylcellulose) (HPC)
[12] = dose: 200.0 mg/kg/injection, schedule: Q04DX003 (ip), vehicle: Klucel (hydroxypropylcellulose) (HPC)

COc1cc2c(c(OC)c1OC)-c1ccc(OC)c(=O)cc1[C@@H](NC(C)=O)CC2
T/C (dose: 0.04 mg/kg/injection, schedule: Q01DX010 (ip), vehicle: saline): 122 % of control | T/C (dose: 0.13 mg/kg/injection, schedule: Q01DX009 (ip), vehicle: water): 171 % of control | T/C (dose: 0.16 mg/kg/injection, schedule: Q01DX010 (ip), vehicle: saline): 181 % of control | T/C (dose: 0.25 mg/kg/injection, schedule: Q01DX009 (ip), vehicle: water): 173 % of control | T/C (dose: 0.32 mg/kg/injection, schedule: Q01DX010 (ip), vehicle: saline): 154 % of control and 181 % of control | T/C (dose: 0.64 mg/kg/injection, schedule: Q01DX010 (ip), vehicle: saline): 163 % of control | T/C (dose: 250.0 micrograms/kg/injection, schedule: Q01DX009 (ip), vehicle: saline): 153 % of control | T/C (dose: 500.0 micrograms/kg/injection, schedule: Q01DX009 (ip), vehicle: saline): 235 % of control | T/C (dose: 1000.0 micrograms/kg/injection, schedule: Q01DX009 (ip), vehicle: saline): 222 % of control

CN(C1=NS(=O)(=O)N=C(N(C)c2ccccc2)O1)c1ccccc1
T/C (dose: 25.0 mg/kg/injection, schedule: Q01DX009 (ip), vehicle: Klucel (hydroxypropylcellulose) (HPC)): 122 % of control | T/C (dose: 50.0 mg/kg/injection, schedule: Q01DX009 (ip), vehicle: Klucel (hydroxypropylcellulose) (HPC)): 102 % of control | T/C [1]: 89 % of control | T/C [2]: 115 % of control | T/C [3]: 99 % of control | T/C [4]: 105 % of control

O=C1CCC(C(=O)N/N=C\C=N/NC(=O)C2CCC(=O)N2)N1 (centres undefined)
T/C (dose: 20.0 mg/kg/injection, schedule: Q01DX009 (ip), vehicle: saline with Tween-80): 91 % of control

CCCCCCCCCCCCCCCCCS(=O)S(=O)O (centres undefined)
T/C (dose: 89.0 mg/kg/injection, schedule: Q01DX009 (ip), vehicle: saline with Tween-80): 116 % of control | T/C [2]: 116 % of control | T/C (dose: 132.0 mg/kg/injection, schedule: Q01DX009 (ip), vehicle: Klucel (hydroxypropylcellulose) (HPC)): 109 % of control | T/C [4]: 119 % of control | T/C (dose: 300.0 mg/kg/injection, schedule: Q01DX009 (ip), vehicle: Klucel (hydroxypropylcellulose) (HPC)): 122 % of control

C=C(C)C1CC=C(/C=N/O)CC1 (centres undefined)
T/C [5]: 100 % of control | T/C [6]: 100 % of control | T/C [7]: 95 % of control

CCOC(=O)C1C(=O)C(C(=O)Nc2ccccc2)C(=O)C(C(=O)OCC)C1c1ccc(O)cc1 (centres undefined)
T/C [5]: 110 % of control and 90 % of control | T/C [6]: 115 % of control | T/C [7]: 110 % of control and 100 % of control

CSc1ccc(NC(=O)C(O)C(O)C(O)C(O)CO)cc1 (centres undefined)
T/C (dose: 75.0 mg/kg/injection, schedule: Q01DX009 (ip), vehicle: saline with Tween-80): 100 % of control | T/C [8]: 104 % of control | T/C (dose: 150.0 mg/kg/injection, schedule: Q01DX009 (ip), vehicle: saline with Tween-80): 100 % of control | T/C [9]: 104 % of control | T/C (dose: 300.0 mg/kg/injection, schedule: Q01DX009 (ip), vehicle: saline with Tween-80): 100 % of control | T/C [10]: 104 % of control

CCC1=C(C)C(=O)C2CCCCC2C1=O (centres undefined)
T/C [8]: 100 % of control | T/C [9]: 100 % of control | T/C [10]: 100 % of control

CCOC(=O)N1CCc2cc(OC)c(OC)cc2C1Cc1ccc(OC)c(OC)c1 (centres undefined)
T/C (dose: 50.0 mg/kg/injection, schedule: Q01DX005 (ip), vehicle: saline with Tween-80): 92 % of control | T/C (dose: 100.0 mg/kg/injection, schedule: Q01DX005 (ip), vehicle: saline with Tween-80): 105 % of control | T/C (dose: 200.0 mg/kg/injection, schedule: Q01DX005 (ip), vehicle: saline with Tween-80): 92 % of control

Cc1cc(=O)[nH]c(N/N=C2/CCCCC2C)n1 (centres undefined)
T/C (dose: 8.0 mg/kg/injection, schedule: Q01DX009 (ip), vehicle: Klucel (hydroxypropylcellulose) (HPC)): 107 % of control | T/C (dose: 16.0 mg/kg/injection, schedule: Q01DX009 (ip), vehicle: Klucel (hydroxypropylcellulose) (HPC)): 107 % of control | T/C (dose: 33.0 mg/kg/injection, schedule: Q01DX009 (ip), vehicle: Klucel (hydroxypropylcellulose) (HPC)): 100 % of control | T/C [2]: 100 % of control | T/C [11]: 109 % of control | T/C [12]: 95 % of control

COC1(F)C2(Cl)C=C(c3ccccc3)C1(Cl)C(Cl)=C2Cl (centres undefined)
T/C (dose: 100.0 mg/kg/injection, schedule: Q04DX002 (ip), vehicle: saline with Tween-80): 101 % of control | T/C (dose: 200.0 mg/kg/injection, schedule: Q04DX002 (ip), vehicle: saline with Tween-80): 111 % of control | T/C (dose: 400.0 mg/kg/injection, schedule: Q04DX002 (ip), vehicle: saline with Tween-80): 100 % of control

COC(=O)[C@@]12OC[C@]34[C@H]([C@@H](O)[C@@H]1O)[C@@]1(C)CC(=O)C(OC(=O)CC(=O)OC5=C(C)[C@@H]6C[C@H]7OC(=O)[C@H](OC(=O)C=C(C)C)[C@H]8[C@]9(C(=O)OC)OC[C@]78[C@H]([C@@H](O)[C@@H]9O)[C@@]6(C)CC5=O)=C(C)[C@@H]1C[C@H]3OC(=O)[C@H](OC(=O)C=C(C)C)[C@@H]24
T/C (dose: 0.18 mg/kg/injection, schedule: Q01DX009 (ip), vehicle: distilled water + Tween-80): 104 % of control | T/C (dose: 0.37 mg/kg/injection, schedule: Q01DX009 (ip), vehicle: distilled water + Tween-80): 104 % of control | T/C (dose: 0.75 mg/kg/injection, schedule: Q01DX009 (ip), vehicle: distilled water + Tween-80): 100 % of control | T/C (dose: 1.5 mg/kg/injection, schedule: Q01DX009 (ip), vehicle: distilled water + Tween-80): 98 % of control | T/C (dose: 3.0 mg/kg/injection, schedule: Q01DX009 (ip), vehicle: distilled water + Tween-80): 111 % of control

COC(=O)C(CSC(c1ccccc1)(c1ccccc1)c1ccccc1)NC(=O)C(CSCc1ccccc1)NC(C)=O (centres undefined) (Ac-Cys(Bn)-Cys(Trt)-OMe; configuration not given here)
T/C (dose: 100.0 mg/kg/injection, schedule: Q01DX009 (ip), vehicle: other): 88 % of control | T/C (dose: 200.0 mg/kg/injection, schedule: Q01DX009 (ip), vehicle: other): 93 % of control | T/C (dose: 400.0 mg/kg/injection, schedule: Q01DX009 (ip), vehicle: other): 107 % of control

Cc1cc(C)nc(NS(=O)(=O)c2ccc(N=Nc3nc4[nH]c(N)nc(=S)c4[nH]3)cc2)n1
T/C (dose: 1.56 mg/kg/injection, schedule: Q01DX009 (ip), vehicle: Klucel (hydroxypropylcellulose) (HPC)): 113 % of control | T/C (dose: 3.13 mg/kg/injection, schedule: Q01DX009 (ip), vehicle: Klucel (hydroxypropylcellulose) (HPC)): 117 % of control | T/C (dose: 6.25 mg/kg/injection, schedule: Q01DX009 (ip), vehicle: Klucel (hydroxypropylcellulose) (HPC)): 112 % of control and 113 % of control | T/C (dose: 50.0 mg/kg/injection, schedule: Q04DX003 (ip), vehicle: Klucel (hydroxypropylcellulose) (HPC)): 116 % of control | T/C [11]: 108 % of control | T/C [12]: 104 % of control

O=C1CN(Cc2ccc3c(c2)OCO3)NO1
T/C (dose: 25.0 mg/kg/injection, schedule: Q01DX009 (ip), vehicle: saline with Tween-80): 113 % of control | T/C [1]: 106 % of control | T/C [3]: 123 % of control | T/C (dose: 200.0 mg/kg/injection, schedule: Q01DX009 (ip), vehicle: saline with Tween-80): 115 % of control

CC(C)CC(C(N)=O)c1ccccc1 (centres undefined)
T/C (dose: 100.0 mg/kg/injection, schedule: Q01DX001 (ip), vehicle: saline with Tween-80): 100 % of control | T/C (dose: 200.0 mg/kg/injection, schedule: Q01DX001 (ip), vehicle: saline with Tween-80): 104 % of control

CCN(C(=O)Nc1cccc2ccccc12)c1ccccc1
T/C (dose: 50.0 mg/kg/injection, schedule: Q01DX001 (ip), vehicle: other): 95 % of control | T/C (dose: 100.0 mg/kg/injection, schedule: Q01DX001 (ip), vehicle: other): 95 % of control | T/C (dose: 200.0 mg/kg/injection, schedule: Q01DX001 (ip), vehicle: other): 100 % of control

C/C(=C\c1ccc(C)cc1)[N+](=O)[O-]
T/C (dose: 17.5 mg/kg/injection, schedule: Q01DX010 (ip), vehicle: saline): 95 % of control | T/C (dose: 35.0 mg/kg/injection, schedule: Q01DX010 (ip), vehicle: saline): 86 % of control | T/C (dose: 70.0 mg/kg/injection, schedule: Q01DX010 (ip), vehicle: saline): 90 % of control

O=C(N/N=C/c1ccccc1Cl)c1ccccc1
T/C [2]: 109 % of control | T/C [4]: 118 % of control | T/C (dose: 400.0 mg/kg/injection, schedule: Q01DX009 (ip), vehicle: Klucel (hydroxypropylcellulose) (HPC)): 90 % of control

O=NN(CCCl)C(=O)NC1CC2CCC1C2 (centres undefined)
T/C (dose: 33.0 mg/kg/injection, schedule: Q04DX003 (ip), vehicle: saline with Tween-80): 272 % of control | T/C (dose: 75.0 mg/kg/injection, schedule: Q04DX003 (ip), vehicle: saline with Tween-80): 113 % of control
